Drawing on patent US20260184691A1, “INHIBITORS AND DEGRADERS OF PIP4K PROTEIN” (Larkspur Biosciences, Inc., priority 2022, published 2026), this text covers DC50 for 18 molecules.

The assay has as its target T1, endogenous PIP4K2C C-terminally tagged with HiBiT peptide in MOLT-4 cells (Homo sapiens, UniProt Q8TBX8).
T1 construct: to C-terminally tag endogenous PIP4K2C with HiBiT peptide; host or cells: MOLT-4 (CRISPR-Cas9 knock-in clone)
T1 sequence (Q8TBX8 1-421): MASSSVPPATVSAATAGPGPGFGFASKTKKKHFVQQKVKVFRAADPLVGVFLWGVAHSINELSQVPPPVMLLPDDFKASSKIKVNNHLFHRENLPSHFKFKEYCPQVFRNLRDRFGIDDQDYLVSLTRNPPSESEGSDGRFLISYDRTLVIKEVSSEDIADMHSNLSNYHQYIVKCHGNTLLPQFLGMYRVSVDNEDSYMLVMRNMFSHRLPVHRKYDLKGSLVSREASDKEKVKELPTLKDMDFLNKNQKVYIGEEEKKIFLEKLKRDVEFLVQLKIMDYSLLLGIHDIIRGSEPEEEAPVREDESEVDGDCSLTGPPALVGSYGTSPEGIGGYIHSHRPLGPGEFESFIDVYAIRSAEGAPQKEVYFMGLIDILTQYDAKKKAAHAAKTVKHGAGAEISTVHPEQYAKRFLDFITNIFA
Description: HiBiT PIP4K2C degradation assay in MOLT-4 cells. It counts as cell-based. To be noted: 24 hours, 10-point dose response, top concentration 10 micromolar, read-out: HiBIT-degradation MOLT4 PIP4k2C 24 hours DC50. A digest of the protocol:
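Cells bearing C-terminal HiBiT knock-in were exposed to a 10-point, 3-fold dilution series (top 10 micromolar, duplicate) for 24 h at 37C, 5% CO2. Remaining tagged protein read by lytic HiBiT luminescence; DC50 from Hill-equation fit.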
(With HiBiT, luminescence reflects the tagged protein that the partner subunit can reach.)

The term DC50 denotes the concentration giving 50% degradation.

With `O=C1CCC(Nc2ccc(C3CCN(CC(=O)N4CCC5(CC4)CCN(c4cncc(Nc6ncc(Cl)c(-c7cccc(N8CCCC8)c7)n6)c4)C5=O)CC3)cc2)C(=O)N1` (stereo not drawn) [Compound 179, 3-((4-(1-(2-(2-(5-((5-chloro-4-(3-(pyrrolidin-1-yl)phenyl)pyrimidin-2-yl)amino)pyridin-3-yl)-1-oxo-2,8-diazaspiro[4.5]decan-8-yl)-2-oxoethyl)piperidin-4-yl)phenyl)amino)piperidine-2,6-dione], the DC50 was less than 0.5 µM.
Next, `O=C1CCC(Nc2ccc(N3CCC(O)(CC(=O)N4CCC5(CC4)CCN(c4cncc(Nc6ncc(Cl)c(-c7cccc(-c8ccccc8)c7)n6)c4)C5=O)CC3)cc2)C(=O)N1` (stereo not drawn) [Compound 180, 3-[4-[4-[2-[2-[5-[[5-chloro-4-(3-phenylphenyl)pyrimidin-2-yl]amino]-3-pyridyl]-1-oxo-2,8-diazaspiro[4.5]decan-8-yl]-2-oxo-ethyl]-4-hydroxy-1-piperidyl]anilino]piperidine-2,6-dione]: less than 0.5 µM; `O=C1CCC(Nc2ccc(N3CCC(CC(=O)N4CCC5(CC4)CCN(c4cncc(Nc6ncc(Cl)c(N7CCOC(c8ccccc8)C7)n6)c4)C5=O)CC3)cc2)C(=O)N1` (stereo not drawn) [Compound 181, 3-((4-(4-(2-(2-(5-((5-chloro-4-(2-phenylmorpholino)pyrimidin-2-yl)amino)pyridin-3-yl)-1-oxo-2,8-diazaspiro[4.5]decan-8-yl)-2-oxoethyl)piperidin-1-yl)phenyl)amino)piperidine-2,6-dione]: less than 0.5 µM; `O=C1CCC(Nc2ccc(N3CCC(CC(=O)N4CCC5(CC4)CCN(c4cncc(Nc6ncc(Cl)c(-c7cccc(N8CCCCC8)c7)n6)c4)C5=O)CC3)cc2)C(=O)N1` (stereo not drawn) [Compound 182, 3-((4-(4-(2-(2-(5-((5-chloro-4-(3-(piperidin-1-yl)phenyl)pyrimidin-2-yl)amino)pyridin-3-yl)-1-oxo-2,8-diazaspiro[4.5]decan-8-yl)-2-oxoethyl)piperidin-1-yl)phenyl)amino)piperidine-2,6-dione]: less than 0.5 µM.
Next, `O=C1CCC(Nc2ccc(N3CCC(N4CCN(CCC(=O)Nc5cncc(Nc6ncc(Cl)c(-c7cccc(-c8ccccc8)c7)n6)c5)CC4)CC3)cc2)C(=O)N1` (stereo not drawn) [Compound 183, N-(5-((4-([1,1′-biphenyl]-3-yl)-5-chloropyrimidin-2-yl)amino)pyridin-3-yl)-3-(4-(1-(4-((2,6-dioxopiperidin-3-yl)amino)phenyl)piperidin-4-yl)piperazin-1-yl)propanamide]: less than 0.5 µM; `O=C1CCC(Nc2ccc(N3CCC(CC(=O)N4CCC5(CC4)CCN(c4cncc(Nc6ncc(Cl)c(-c7cccc(N8CCCC8)c7)n6)c4)C5=O)CC3)cc2)C(=O)N1` (stereo not drawn) [Compound 184, 3-((4-(4-(2-(2-(5-((5-chloro-4-(3-(pyrrolidin-1-yl)phenyl)pyrimidin-2-yl)amino)pyridin-3-yl)-1-oxo-2,8-diazaspiro[4.5]decan-8-yl)-2-oxoethyl)piperidin-1-yl)phenyl)amino)piperidine-2,6-dione]: less than 0.5 µM.
Next, `O=C1CCC(Nc2ccc(C3CCN(CC(=O)N4CCC5(CC4)CCN(c4cncc(Nc6ncc(Cl)c(-c7cccc(N8CCCCC8)c7)n6)c4)C5=O)CC3)cc2)C(=O)N1` (stereo not drawn) [Compound 185, 3-[4-[1-[2-[2-[5-[[5-chloro-4-[3-(1-piperidyl)phenyl]pyrimidin-2-yl]amino]-3-pyridyl]-1-oxo-2,8-diazaspiro[4.5]decan-8-yl]-2-oxo-ethyl]-4-piperidyl]anilino]piperidine-2,6-dione]: less than 0.5 µM.
Take `O=C1CCC(Nc2ccc(C3CCN(CC(=O)N4CCC5(CC4)CCN(c4cncc(Nc6ncc(Cl)c(N7CCOC(c8ccccc8)C7)n6)c4)C5=O)CC3)cc2)C(=O)N1` (stereo not drawn) [Compound 186, 3-[4-[1-[2-[2-[5-[[5-chloro-4-(2-phenylmorpholin-4-yl)pyrimidin-2-yl]amino]-3-pyridyl]-1-oxo-2,8-diazaspiro[4.5]decan-8-yl]-2-oxo-ethyl]-4-piperidyl]anilino]piperidine-2,6-dione]: the half-maximal degradation concentration (DC50) is less than 0.5 µM.
Next, `O=C1CCC(Nc2ccc(N3CCC(CN4CCC(C(=O)Nc5cncc(Nc6ncc(Cl)c(-c7cccc(-c8ccccc8)c7)n6)c5)CC4)CC3)cc2)C(=O)N1` (stereo not drawn) [Compound 187, N-(5-((4-([1,1′-biphenyl]-3-yl)-5-chloropyrimidin-2-yl)amino)pyridin-3-yl)-1-((1-(4-((2,6-dioxopiperidin-3-yl)amino)phenyl)piperidin-4-yl)methyl)piperidine-4-carboxamide]: less than 0.5 µM; `O=C1CCC(Nc2ccc(C3CCN(CC(=O)N4CCC5(CC4)CCN(c4cncc(Nc6ncc(Cl)c(-c7cccc(N8CCC8)c7)n6)c4)C5=O)CC3)cc2)C(=O)N1` (stereo not drawn) [Compound 188, 3-((4-(1-(2-(2-(5-((4-(3-(azetidin-1-yl)phenyl)-5-chloropyrimidin-2-yl)amino)pyridin-3-yl)-1-oxo-2,8-diazaspiro[4.5]decan-8-yl)-2-oxoethyl)piperidin-4-yl)phenyl)amino)piperidine-2,6-dione]: less than 0.5 µM; `O=C1CCC(Nc2ccc(N3CCC(CC(=O)N4CCC5(CC4)CCN(c4cncc(Nc6ncc(Cl)c(-c7cccc(C8CCCCC8)c7)n6)c4)C5=O)CC3)cc2)C(=O)N1` (stereo not drawn) [Compound 189, 3-((4-(4-(2-(2-(5-((5-chloro-4-(3-cyclohexylphenyl)pyrimidin-2-yl)amino)pyridin-3-yl)-1-oxo-2,8-diazaspiro[4.5]decan-8-yl)-2-oxoethyl)piperidin-1-yl)phenyl)amino)piperidine-2,6-dione]: 0.5 to 1 µM.
Next, `O=C1CCC(Nc2ccc(C3CCN(CC(=O)N4CCC5(CC4)CCN(c4cncc(Nc6ncc(Cl)c(-c7cccc(C8CCCCC8)c7)n6)c4)C5=O)CC3)cc2)C(=O)N1` (stereo not drawn) [Compound 190, 3-((4-(1-(2-(2-(5-((5-chloro-4-(3-cyclohexylphenyl)pyrimidin-2-yl)amino)pyridin-3-yl)-1-oxo-2,8-diazaspiro[4.5]decan-8-yl)-2-oxoethyl)piperidin-4-yl)phenyl)amino)piperidine-2,6-dione]: less than 0.5 µM; `O=C1CCC(Nc2ccc(N3CCC(CC(=O)N4CCC5(CC4)CCN(c4cncc(Nc6ncc(Cl)c(-c7cccc(C8CCCC8)c7)n6)c4)C5=O)CC3)cc2)C(=O)N1` (stereo not drawn) [Compound 191, 3-((4-(4-(2-(2-(5-((5-chloro-4-(3-cyclopentylphenyl)pyrimidin-2-yl)amino)pyridin-3-yl)-1-oxo-2,8-diazaspiro[4.5]decan-8-yl)-2-oxoethyl)piperidin-1-yl)phenyl)amino)piperidine-2,6-dione]: less than 0.5 µM; `O=C1CCC(Nc2ccc(C3CCN(CC(=O)N4CCC5(CC4)CCN(c4cncc(Nc6ncc(Cl)c(-c7cccc(C8CCCC8)c7)n6)c4)C5=O)CC3)cc2)C(=O)N1` (stereo not drawn) [Compound 192, 3-((4-(1-(2-(2-(5-((5-chloro-4-(3-cyclopentylphenyl)pyrimidin-2-yl)amino)pyridin-3-yl)-1-oxo-2,8-diazaspiro[4.5]decan-8-yl)-2-oxoethyl)piperidin-4-yl)phenyl)amino)piperidine-2,6-dione]: less than 0.5 µM.
Next, `CN1CCC(n2cc(-c3nc(Nc4cncc(N5CCC6(CCN(C(=O)CC7CCN(c8ccc(NC9CCC(=O)NC9=O)cc8)CC7)CC6)C5=O)c4)ncc3Cl)cn2)CC1` (stereo not drawn) [Compound 193, 3-((4-(4-(2-(2-(5-((5-chloro-4-(1-(1-methylpiperidin-4-yl)-1H-pyrazol-4-yl)pyrimidin-2-yl)amino)pyridin-3-yl)-1-oxo-2,8-diazaspiro[4.5]decan-8-yl)-2-oxoethyl)piperidin-1-yl)phenyl)amino)piperidine-2,6-dione]: less than 0.5 µM; `CN1CCC(n2cc(-c3nc(Nc4cncc(N5CCC6(CCN(C(=O)CN7CCC(c8ccc(NC9CCC(=O)NC9=O)cc8)CC7)CC6)C5=O)c4)ncc3Cl)cn2)CC1` (stereo not drawn) [Compound 194, 3-((4-(1-(2-(2-(5-((5-chloro-4-(1-(1-methylpiperidin-4-yl)-1H-pyrazol-4-yl)pyrimidin-2-yl)amino)pyridin-3-yl)-1-oxo-2,8-diazaspiro[4.5]decan-8-yl)-2-oxoethyl)piperidin-4-yl)phenyl)amino)piperidine-2,6-dione]: less than 0.5 µM; `O=C1CCC(N2Cc3cc(NCCCCC(=O)N4CCC5(CC4)CCN(c4cncc(Nc6ncc(Cl)c(-c7cccc(-c8ccccn8)c7)n6)c4)C5=O)ccc3C2=O)C(=O)N1` (stereo not drawn) [Compound 195, 3-(5-((5-(2-(5-((5-chloro-4-(3-(pyridin-2-yl)phenyl)pyrimidin-2-yl)amino)pyridin-3-yl)-1-oxo-2,8-diazaspiro[4.5]decan-8-yl)-5-oxopentyl)amino)-1-oxoisoindolin-2-yl)piperidine-2,6-dione]: less than 0.5 µM.
Regarding `O=C1CCC(N2Cc3cc(C4CCN(C(=O)CN5CCC(C(=O)Nc6cncc(Nc7ncc(Cl)c(-c8cccc(C9CC9)c8)n7)c6)CC5)CC4)ccc3C2=O)C(=O)N1` (stereo not drawn) [Compound 196, N-(5-((5-chloro-4-(3-cyclopropylphenyl)pyrimidin-2-yl)amino)pyridin-3-yl)-1-(2-(4-(2-(2,6-dioxopiperidin-3-yl)-1-oxoisoindolin-5-yl)piperidin-1-yl)-2-oxoethyl)piperidine-4-carboxamide], the DC50 was less than 0.5 µM.
